Test [1] relates to MOLT-4. In words: SRB anticancer assay, leukemia. It is filed as cell-based, human. The note with it: MOLT-4, 48 h. For orientation: Sulforhodamine B stains cellular protein and so reports cell mass.
Test [2] relates to SNB-75. In words: SRB anticancer assay, CNS. It is filed as cell-based, human. The note with it: SNB-75, 48 h.
Test [3] relates to KM12. In words: SRB anticancer assay, colon. The following applies: KM12, 48 h. Type of test: cell-based, human.
Test [4] deals with NCI-H460. In words: SRB anticancer assay, non-small lung. Type of test: cell-based, human. The note with it: NCI-H460, 48 h.
The subject of test [5] is MDA-MB-231/ATCC. The experiment in a line: SRB anticancer assay, breast. The note with it: 48 h, read-out: GI50. Type of test: cell-based, human.
Test [6] relates to CCRF-CEM. The experiment in a line: SRB anticancer assay, leukemia. Type of test: cell-based, human. The note with it: 48 h.
For test [7], the system named is TK-10. In words: SRB anticancer assay, renal. Type of test: cell-based, human. The following applies: TK-10, 48 h.
The test system of test [8] is UACC-62. The experiment in a line: SRB anticancer assay, melanoma. Type of test: cell-based, human. The note with it: UACC-62, 48 h.
The subject of test [9] is NCI-H23. The experiment in a line: SRB anticancer assay, non-small lung. It is filed as cell-based, human. The following applies: NCI-H23, 48 h.
Test [10] concerns CAKI-1. In words: SRB anticancer assay, renal. It is filed as cell-based, human. The following applies: CAKI-1, 48 h.
Test [11] has as its system SK-OV-3. The experiment in a line: SRB anticancer assay, ovarian. The following applies: SK-OV-3, 48 h. Type of test: cell-based, human.
The subject of test [12] is DU-145. The experiment in a line: SRB anticancer assay, prostate. Type of test: cell-based, human. The note with it: DU-145, 48 h.
Test [13] concerns NCI-H522. In words: SRB anticancer assay, non-small lung. The note with it: NCI-H522, 48 h. It is filed as cell-based, human.
In test [14] the test system is SF-295. In words: SRB anticancer assay, CNS. Type of test: cell-based, human. The note with it: SF-295, 48 h.
In test [15] the test system is PC-3. The experiment in a line: SRB anticancer assay, prostate. Type of test: cell-based, human. The note with it: PC-3, 48 h.
Test [16] relates to U251. The experiment in a line: SRB anticancer assay, CNS. Type of test: cell-based, human. The following applies: U251, 48 h.
For test [17], the system named is SK-MEL-5. The experiment in a line: SRB anticancer assay, melanoma. The following applies: SK-MEL-5, 48 h. It is filed as cell-based, human.
Test [18] concerns SK-MEL-28. The experiment in a line: SRB anticancer assay, melanoma. Type of test: cell-based, human. The following applies: SK-MEL-28, 48 h.
Test [19] relates to K-562. In words: SRB anticancer assay, leukemia. It is filed as cell-based, human. The note with it: K-562, 48 h.
Test [20] concerns OVCAR-4. In words: SRB anticancer assay, ovarian. It is filed as cell-based, human. The note with it: OVCAR-4, 48 h.
The test system of test [21] is MALME-3M. In words: SRB anticancer assay, melanoma. It is filed as cell-based, human. The following applies: MALME-3M, 48 h.
Test [22] relates to BT-549. The experiment in a line: SRB anticancer assay, breast. Type of test: cell-based, human. The following applies: BT-549, 48 h.
Test [23] deals with EKVX. The experiment in a line: SRB anticancer assay, non-small lung. Type of test: cell-based, human. The following applies: 48 h.
Test [24] relates to UO-31. In words: SRB anticancer assay, renal. It is filed as cell-based, human. The note with it: UO-31, 48 h.
The test system of test [25] is NCI-H322M. The experiment in a line: SRB anticancer assay, non-small lung. Type of test: cell-based, human. The note with it: 48 h.
Test [26] has as its system 786-0. The experiment in a line: SRB anticancer assay, renal. It is filed as cell-based, human. The note with it: 786-0, 48 h.
Test [27] deals with A549/ATCC. In words: SRB anticancer assay, non-small lung. Type of test: cell-based, human. The note with it: 48 h.
The subject of test [28] is ACHN. The experiment in a line: SRB anticancer assay, renal. Type of test: cell-based, human. The note with it: 48 h.
For test [29], the system named is OVCAR-5. In words: SRB anticancer assay, ovarian. It is filed as cell-based, human. The note with it: OVCAR-5, 48 h.
Test [30] deals with OVCAR-3. In words: SRB anticancer assay, ovarian. It is filed as cell-based, human. The following applies: OVCAR-3, 48 h.
In test [31] the test system is SF-268. In words: SRB anticancer assay, CNS. It is filed as cell-based, human. The note with it: SF-268, 48 h.
The subject of test [32] is SW-620. In words: SRB anticancer assay, colon. It is filed as cell-based, human. The following applies: SW-620, 48 h.
For test [33], the system named is SN12C. The experiment in a line: SRB anticancer assay, renal. Type of test: cell-based, human. The note with it: 48 h.
For test [34], the system named is SR. In words: SRB anticancer assay, leukemia. Type of test: cell-based, human. The following applies: 48 h.
The test system of test [35] is HCT-116. In words: SRB anticancer assay, colon. It is filed as cell-based, human. The following applies: HCT-116, 48 h.
Test [36] deals with IGROV1. The experiment in a line: SRB anticancer assay, ovarian. It is filed as cell-based, human. The note with it: IGROV1, 48 h.
Test [37] has as its system MCF7. The experiment in a line: SRB anticancer assay, breast. The following applies: MCF7, 48 h. Type of test: cell-based, human.
In test [38] the test system is MDA-MB-435. The experiment in a line: SRB anticancer assay, melanoma. It is filed as cell-based, human. The note with it: MDA-MB-435, 48 h.
Test [39] relates to HT29. The experiment in a line: SRB anticancer assay, colon. It is filed as cell-based, human. The following applies: HT29, 48 h.
The subject of test [40] is HOP-62. In words: SRB anticancer assay, non-small lung. It is filed as cell-based, human. The following applies: HOP-62, 48 h.
For test [41], the system named is RXF 393. The experiment in a line: SRB anticancer assay, renal. The following applies: RXF 393, 48 h. Type of test: cell-based, human.
The test system of test [42] is HS 578T. The experiment in a line: SRB anticancer assay, breast. It is filed as cell-based, human. The following applies: 48 h.
The subject of test [43] is A498. In words: SRB anticancer assay, renal. It is filed as cell-based, human. The note with it: A498, 48 h.
In test [44] the test system is NCI-H226. The experiment in a line: SRB anticancer assay, non-small lung. Type of test: cell-based, human. The note with it: NCI-H226, 48 h.
Test [45] relates to SNB-19. The experiment in a line: SRB anticancer assay, CNS. It is filed as cell-based, human. The note with it: SNB-19, 48 h.
The test system of test [46] is M14. The experiment in a line: SRB anticancer assay, melanoma. It is filed as cell-based, human. The following applies: M14, 48 h.
In test [47] the test system is p21. In words: Western blot, apoptosis proteins in MCF-7 cells. Type of test: cell-based. The note with it: 2 μM, 24h. The method, then:
(§1) FIG. 3 represents effect of compound 7d and 7h on p21 and caspase-9. MCF-7 cells were treated with 2 μM concentration of compounds 7d and 7h for 24h. The cell lysates were collected and probed with anti-bodies against p21 and caspase-9. beta-actin was used as loading control. Con: Control (untreated).
(§2) Activation of tumor suppressor gene p21 was the important regulator of apoptotic pathway caused by various stimuli. In many instances the apoptotic cell death is mediated by caspases, thus the possible involvement of p21 and caspase protein and its role in apoptosis has been investigated. MCF-7 cells were treated with 7d, 7h (the effective compounds of cell cycle arrest) 21a, 21d and CA-4 at 2 μM concentration.
Background: A western blot detects proteins with antibodies after separation by electrophoresis.

Test [48] has as its system caspase-9. The experiment in a line: Western blot, apoptosis proteins in MCF-7 cells. It is filed as cell-based. The following applies: 2 μM, 24h. The method, then:
as §1, §2

The test system of test [49] is K562 (Leukemia) cells. The experiment in a line: Cell cycle distribution by flow cytometry. It is filed as cell-based. How it is done:
(§3) In order to investigate the mechanism underlying the anti-proliferative effect of the compounds the cell cycle distribution was analyzed in K562 (Leukemia) and MCF-7 (Breast carcinoma) cell lines by flow cytometry. Compounds CA-4, 21a, 21d, 4c, 6d, 6e, 6f, 7d, 7h and 7j have shown 1.72%, 14%, 12%, 14%, 12%, 14%, 14%, 16%, 16% &12% in K562 cells and 49.63%, 21%, 20%, 18%, 21%, 21%, 21%, 24%, 23% and 23% in MCF-7 cell line respectively. […] Thus compound 7d was considered for further studies (FIG. 1).

Test [50] concerns MCF-7 (Breast carcinoma) cells. The experiment in a line: Cell cycle distribution by flow cytometry (FACS). It is filed as cell-based. The note with it: MCF-7 cells, 2 μM, 24h. How it is done:
FIG. 1 represents FACS analysis of cell cycle distribution of MCF-7 cells after treatment with compounds CA-4, 21a, 21d, 4c, 6d, 6e, 6f, 7d, 7h and 7j at 2 μM concentration for 24h and control cells are the cells treated with DMSO (0.25%).
as §3

Where two headings read alike, the source gives them in different places.

Turning to `Cc1cc(-c2nc3ccc(O)cc3s2)ccc1N` [Compound 3b, reference compound], the GI50 – broadly, the concentration giving 50% growth inhibition – in test [1] was 26.9 µM; in test [2], 15.8 µM; in test [3] it was 57.6 µM; in test [4], 38.9 µM; in [5] (MDA-MB-231/ATCC (row head MDA-MB-)), 44.7 µM; in [5] (listed as head printed 231/ATCC (second line of MDA-MB-231/ATCC)) it was 95.5 µM. The GI50 in test [6] stood at 0.79 µM; in [7], 77.6 µM; in test [8] it was 57.6 µM; in [9], 12.6 µM; in [10], 34.7 µM; in test [11], 37.2 µM. For the same compound, the GI50 stood at 33.9 µM in [12]; 30.2 µM in test [13]; 31.6 µM in test [14]; 50.1 µM in [15]; 31.6 µM in test [16]; 52.5 µM in test [17]. Further, the GI50 in test [18] amounted to 64.6 µM; in test [19] it was 36.3 µM; in test [20] it was 37.2 µM; in test [21] it was 83.2 µM; in test [22] it was 22.4 µM; in [23] it was 4.07 µM. Further, the GI50 in test [24] is 21.4 µM; in test [25], 39.8 µM; in test [26], 29.5 µM; in test [27] it was 34.7 µM; in test [28] it was 53.7 µM; in test [29], 83.2 µM. In addition, the GI50 in test [30] turned out to be 38.9 µM; in test [31], 35.5 µM; in [32], 66.1 µM; in [33], 38.9 µM; in test [34], 21.9 µM; in test [35], 43.7 µM. The GI50 in test [36] was 47.9 µM; in test [37], 56.2 µM; in [38], 89.1 µM; in test [39], 37.2 µM; in test [40], 30.9 µM; in [41], 30.2 µM. The GI50 in test [42] amounted to 14.1 µM; in [43], 41.7 µM; in test [44], 60.3 µM; in test [45] it was 45.7 µM; in [46], 33.1 µM.

For the compound `COc1cc2nc(-c3ccc(N)cc3)sc2c(OC)c1OC` [Compound 21d, 4-(5,6,7-trimethoxybenzo[d]thiazol-2-yl)benzenamine], in test [47], the “p21 protein (Western blot)” value is listed as “increase”. Further, the “caspase-9 protein (Western blot)” value in test [48] is reported as “increase”. The “cells in G2/M phase” value in test [49] stood at 12%; in test [50], 20%.

For `COc1ccc(/C=C\c2cc(OC)c(OC)c(OC)c2)cc1O` [CA-4, Combretastatin A-4, reference compound], in test [47], the “p21 protein (Western blot)” value is given as “increase”. Besides, the “caspase-9 protein (Western blot)” value in test [48] was “increase”. Also, the figures for the “cells in G2/M phase” value in test [49] and in [50] were 1.72% and 49.63%, respectively.

Regarding `Nc1ccc(-c2nc3ccc(F)cc3s2)cc1` [Compound 21a, 4-(6-fluorobenzo[d]thiazol-2-yl)benzenamine], in test [47], the “p21 protein (Western blot)” value is recorded as “increase”. Moreover, in test [48], the “caspase-9 protein (Western blot)” value is “increase”. Further, the “cells in G2/M phase” value in [49] came out at 14%; in test [50] it was 21%.

Source of the values: patent US9187467B2, “2-phenyl benzothiazole linked imidazole compounds as potential anticancer agents and process for the preparation thereof” (Council of Scientific and Industrial Research, priority 2012, dated 2015).
